Legend:
Hmgsc2 mRNA = Hmgsc2 mRNA in bortezomib resistant cells; assay type: cell-based; details: vs control shRNA
Excerpt: As shown in the data the control levels of Hmgsc2 are quite high in the control and low in the other samples.
The effects of Hmgsc2 expression in bortezomib resistant cells was examined to determine if Hmgsc2 would be a good therapeutic target for the treatment of NF-kB regulated lung cancers. […] As shown in the data the control levels of Hmgsc2 are quite high in the control and low in the other samples.

NF-κB target genes = assay: Quantitative PCR of NF-κB target genes in KP cells; assay type: cell-based, mouse
Description: (§1) FIG. 1. Bortezomib inhibits NF-κB signaling and induces apoptosis in murine lung adenocarcinoma cell lines. (1A) reduction of nuclear p65 level by bortezomib. Two KP (KrasLSL-G12D/wt;p53flox/flox) cell lines (KP1 and KP2) were treated with 5 nM bortezomib (BZ) or vehicle control (ctrl) for 24 hours. Nuclear (N) and cytoplasmic (C) fractions of protein lysates were immunoblotted with the indicated antibodies. NEMO and Parp serve as cytoplasmic and nuclear loading controls, respectively. (1B) quantitative PCR analysis of a subset of NF-κB target genes in 5 nM bortezomib (BZ)-treated KP cells at the indicated time points. Vehicle control is set to 1. (1C) apoptosis in KP and KP^M (KrasLSL-G12D/wt;p53R127H/−) cells induced by bortezomib. Cells were pre-treated with 5 nM bortezomib for 24 hours, and protein lysates were immunoblotted with CC3 and tubulin antibodies. (1D) quantification of cell death in bortezomib-treated cells. Cells were treated with the indicated concentrations of bortezomib for 24 hours, and dead cells were quantified by Trypan blue staining. Error bars are SD (n=3).
(§2) FIG. 7: The NF-κB inhibitor Bay-117082 leads to lung tumor regression in vivo. (7A) quantitative PCR analysis of NF-κB target gene expression in KP cells treated with 10 μM Bay-117082 for indicated hours. Error bars are SD (n=3). (7B) Bay-117082 treatment leads to lung tumor regression and delays tumor progression in the orthotopic lung tumor model. A total of 50,000 luciferase-tagged KP cells were transplanted into recipient mice (n=6), and treatment was started at 19 days after transplantation (set at D0). Mice were treated with vehicle control or 10 mg/kg Bay-117082 by i.p. injection, and imaged at the indicated time points. Arrows indicate Bay-117082 injections. (7C) Bay-117082 prolongs survival in the KP model (n=6; P=0.008). “i.p. dosing” indicates treatment with 3 doses per week.
RNA was purified using TRIzol (Invitrogen), according to the manufacturer's instructions. One microgram of RNA was reverse transcribed using the High-Capacity cDNA Reverse Transcription Kit (Applied Biosystems). Real-time PCR (quantitative PCR) amplification was performed using Taqman probes (Applied Biosystems). Data were normalized to the Gapdh (mouse) or GAPDH (human) levels.

KP mice = assay: Kaplan-Meier survival of KP mice; assay type: in vivo, mouse; details: KP mice 8 weeks post Adeno-Cre, Bay-117082 10 mg/kg i.p. 3 times per week for 4 weeks; control 79.0±13.2 days; P=0.008
Description: (5A and 5B) Kaplan-Meier survival curve of vehicle control and bortezomib-treated KP (5A) and K (5B) mice. Arrows indicate weekly 1 mg/kg bortezomib regimen. […] Arrows indicate bortezomib injection.
To initiate lung tumors, cohorts of K or KP mice of 129svJae background were infected with 2.5×10^7 plaque-forming units of Adeno-Cre (University of Iowa) by intranasal inhalation, as described previously (2, 28). Mice were given bortezomib (LC Labs) in PBS [0.5% dimethylsulfoxide (DMSO)] at 1 mg/kg body weight i.v., as indicated.
To analyze the long-term effects of bortezomib therapy, we investigated whether a 4-dose regimen of bortezomib (19) could prolong survival of tumor-bearing mice. Using a cohort of KP mice, we treated tumor-bearing animals 8 weeks after Adeno-Cre infection with bortezomib once a week for 4 weeks (FIG. 10A).

[1] = tested on: stress-activated protein kinases, p38 and JNK-1; details: cited from earlier work
KP and KP^M cell lines = assay: Cell viability assay (Cell Titer Aqueous Kit); assay type: cell-based, mouse; details: KP cell lines, increasing doses of Bay-117082, 48 hours
Description: FIG. 2: Bortezomib sensitivity correlates with basal NF-κB activity in KP lung adenocarcinoma cell lines. […] 3TZ, diamond; LKR13, triangle; KP, solid lines; KPM, dashed lines. Error bars are SD (n=3). (2B) lung cancer cell lines with high basal NF-κB activity were sensitive to bortezomib. NF-κB p65 DNA-binding activity was determined by ELISA from nuclear extracts of KP cell lines and LKR13 cells (set as 1). Relative viability was measured after 5 nM bortezomib treatment, as in 2A. FIG. 17: Bay-117082 induces cell death In KP cells. […] (17B) Bay-117082 induces apoptosis in KP cells. Cells were treated with 10IJM Bay-117082 for 48 hours. […] Cell culture conditions were as described recently (30).

[2] = tested on: luciferase-tagged KP cells transplanted into immunocompetent recipient mice; assay: Orthotopic lung tumor model, survival and bioluminescence imaging; assay type: in vivo, mouse
Excerpt: FIG. 6: Imaging bortezomib response and resistance in an orthotopic lung tumor model. (6A) experimental design. Lung cancer cells derived from KP tumors were infected with a retrovirus expressing luciferase and transplanted into immunocompetent recipient mice by tail vein injection. (6B) Kaplan-Meier survival curve of control and bortezomib-treated recipient mice (n=6; P=1.4×10−5). A total of 10,000 cells were transplanted, and treatment started after 35 days. (6C) representative bioluminescence imaging of recipient mice (n=6) treated with vehicle control or bortezomib, as in 6B. D0 refers to the first treatment. Arrows indicate weekly bortezomib regimen.
as §2
At indicated time points, mice were scanned for 15 min under isoflurane anesthesia, using a small animal eXplore Locus microCT (GE Healthcare) at 45-μm resolution, 80 kV, with 450-mA current (47). Images were acquired and processed using GE eXplore software. Bioluminescence imaging was performed as previously described (48). Mice were imaged for 60 seconds, and signals in the lung were quantified using Xenogen software.
To facilitate imaging of the bortezomib treatment response, we adapted a transplantation-based orthotopic lung cancer mouse model (37). As outlined in FIG. 6A, we infected KP cell lines with a retrovirus expressing firefly luciferase. The cells were transplanted into immunocompetent recipient mice by i.v. injection, resulting in the development of in situ lung tumors that could be imaged and quantified by bioluminescence imaging.
To determine whether bortezomib therapy was effective in the orthotopic model, we transplanted 10,000 KP cells into host mice and treated the mice 5 weeks later, either with control or with a weekly 4-dose regimen of bortezomib (37).

IKK kinase activity = details: cited from earlier work
KP and KP^M cells = assay: Cleaved caspase 3 (CC3) immunoblot in lung adenocarcinoma cells; assay type: cell-based, mouse; details: KP cell lines, 10IJM Bay-117082, 48 hours
Description: as §1
FIG. 17: Bay-117082 induces cell death In KP cells. […] (17B) Bay-117082 induces apoptosis in KP cells. Cells were treated with 10IJM Bay-117082 for 48 hours. Protein lysates were immunoblotted with cleaved caspase 3 (CC3) and Tubulin antibodies.
Cell pellets were lysed in Laemmli buffer. […]

| Molecule | relative amount of Hmgsc2 mRNA (Hmgsc2 mRNA) | Xiap inhibition, Bay-117082 compared with bortezomib (NF-κB target genes; KP cells in vitro, FIG. 1B and FIG. 7A) | expression of prosurvival NF-κB target genes such as Bcl2, Bclx1, Xiap (NF-κB target genes; KP cells, 10 μM Bay-117082, indicated hours) | survival (KP mice) [days] | effect on stress-activated protein kinases p38 and JNK-1 [1] | cell death (relative cell viability) (KP and KP^M cell lines) | lung tumor signal in the initial phase ([2]; 50,000 luciferase-tagged KP cells, 10 mg/kg Bay-117082 i.p., 0-9 days) | lung tumor progression ([2]; orthotopic model, 10 mg/kg Bay-117082 i.p.) | tumor response under continuous treatment ([2]; orthotopic model, 42-63 days) | IKK kinase activity (IKK kinase activity) | caspase 3 cleavage (KP and KP^M cells) |
| --- | --- | --- | --- | --- | --- | --- | --- | --- | --- | --- | --- |
| insulin: positive control; represses Hmgcs2 | low |  |  |  |  |  |  |  |  |  |  |
| Cc1ccc(S(=O)(=O)/C=C/C#N)cc1 [Bay-117082] |  | stronger | downregulates | 120.2 ± 27.0 | stimulate | cell death | significantly reduced lung tumor signal | delayed lung tumor progression until 42 days | eventually became refractory to therapy | inhibits | induced caspase 3 cleavage |

From patent US20150150892A1, “METHODS AND PRODUCTS RELATED TO LUNG CANCER” (Massachusetts Institute of Technology, priority 2012, published 2015)
